In patent publication US11931343B2 (ARCUS BIOSCIENCES, INC., priority 2018, dated 2024):

The compounds below were run against T1, human CD73 (Homo sapiens, UniProt P21589) (assay: Inhibition of Ecto-5′-nucleotidase (CD73) activity in CHO-CD73 cells, phosphate release from AMP). Settings: CHO-K1 cells stably transfected with human CD73; 25 μM AMP; 50 minutes, 37° C.; read-out: Potency: CD73 IC50.
T1 sequence (P21589 27-549): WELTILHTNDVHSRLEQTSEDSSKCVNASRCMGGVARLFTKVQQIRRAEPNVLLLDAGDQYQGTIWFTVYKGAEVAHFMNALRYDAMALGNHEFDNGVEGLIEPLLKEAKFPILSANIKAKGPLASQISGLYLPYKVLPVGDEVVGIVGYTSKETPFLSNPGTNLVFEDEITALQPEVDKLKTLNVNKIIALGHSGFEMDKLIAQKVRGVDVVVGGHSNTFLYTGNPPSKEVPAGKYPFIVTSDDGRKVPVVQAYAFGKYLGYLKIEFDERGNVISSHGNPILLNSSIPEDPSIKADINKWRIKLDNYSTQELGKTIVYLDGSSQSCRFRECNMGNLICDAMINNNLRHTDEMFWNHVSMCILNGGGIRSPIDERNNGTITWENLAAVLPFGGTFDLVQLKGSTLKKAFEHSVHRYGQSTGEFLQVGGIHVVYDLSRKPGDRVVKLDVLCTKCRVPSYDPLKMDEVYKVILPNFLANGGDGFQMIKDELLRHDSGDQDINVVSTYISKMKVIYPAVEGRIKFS
Type: cell-based

Row | IC50 | SMILES
1 | 100 to 1000 nM | CC(C)(O)C1CN(Cc2cc(C#N)ccc2Cn2nccc2-c2cc(F)c3nnn(-c4ccc5[nH]c(=O)[nH]c5c4)c3c2)C1 [Example 305]
2 | 100 to 1000 nM | N#Cc1ccc(Cn2nccc2-c2cc(F)c3nnn(-c4ccc5[nH]c(=O)[nH]c5c4)c3c2)c(C(=O)O)c1 [Example 306]
3 | 100 to 1000 nM | CNC(=O)c1cc(C#N)ccc1Cn1nccc1-c1cc(F)c2nnn(-c3ccc4[nH]c(=O)[nH]c4c3)c2c1 [Example 307]
4 | > 1000 nM | N#Cc1ccc(Cn2nccc2-c2cc(F)c3nnn(-c4ccc5[nH]c(=O)[nH]c5c4)c3c2)c(C(=O)N2CC(O)C2)c1 [Example 308]
5 | 100 to 1000 nM | CCc1cc(C#N)ccc1Cn1nccc1-c1cc(F)c2nnn(-c3ccc4[nH]c(=O)[nH]c4c3)c2c1 [Example 309]
6 | 100 to 1000 nM | N#Cc1ccc(Cn2nccc2-c2cc(F)c3nnn(-c4ccc5[nH]c(=O)[nH]c5c4)c3c2)c(S(N)(=O)=O)c1 [Example 310]
7 | > 1000 nM | N#Cc1ccc(Cn2nccc2-c2cn3c(-c4ccc5[nH]c(=O)[nH]c5c4)cnc3cn2)cc1 [Example 311]
8 | > 1000 nM | CC(C)(O)c1cc(C#N)ccc1Cn1nccc1-c1cc(F)c2nnn(-c3ccc4[nH]c(=O)[nH]c4c3)c2c1 [Example 312]
9 | 100 to 1000 nM | CC(O)c1cc(C#N)ccc1Cn1nccc1-c1cc(F)c2nnn(-c3ccc4[nH]c(=O)[nH]c4c3)c2c1 (centres unmarked) [Example 313]
10 | 100 to 1000 nM | N#Cc1ccc(Cn2nccc2-c2cc3c(cn2)c(N)nn3-c2ccc3[nH]c(=O)[nH]c3c2)cc1 [Example 314]
11 | 100 to 1000 nM | N#Cc1ccc(Cn2nccc2-c2cnc3c(N)nn(-c4ccc5[nH]c(=O)[nH]c5c4)c3c2)nc1 [Example 315]
12 | 100 to 1000 nM | Cn1nc(-c2ccc3[nH]c(=O)[nH]c3c2)c2cc(-c3ccnn3Cc3ccc(C#N)cc3)cnc21 [Example 316]
13 | > 1000 nM | N#Cc1cnc(Cn2nccc2-c2cc(F)c3nnn(-c4ccc5[nH]c(=O)[nH]c5c4)c3c2)c2ccccc12 [Example 318]
14 | > 1000 nM | N#CCc1ccc(Cn2nccc2-c2cc(F)c3nnn(-c4ccc5[nH]c(=O)[nH]c5c4)c3c2)cc1 [Example 319]
15 | 100 to 1000 nM | Cc1coc(-c2cc(C#N)ccc2Cn2nccc2-c2cc(F)c3nnn(-c4ccc5[nH]c(=O)[nH]c5c4)c3c2)n1 [Example 320]
16 | 100 to 1000 nM | Cc1cnc(-c2cc(C#N)ccc2Cn2nccc2-c2cc(F)c3nnn(-c4ccc5[nH]c(=O)[nH]c5c4)c3c2)o1 [Example 321]
17 | 100 to 1000 nM | N#Cc1ccc(Cn2ncc(Cl)c2-c2ccc3nnn(-c4ccc5[nH]c(=O)[nH]c5c4)c3c2)cc1 [Example 323]

Row | IC50 | SMILES
18 | > 1000 nM | N#Cc1ccc(Cn2nccc2-c2cnc3c(c2)c(-c2ccc4[nH]c(=O)[nH]c4c2)nn3CCO)cc1 [Example 324]
19 | > 1000 nM | COC(=O)Cn1nc(-c2ccc3[nH]c(=O)[nH]c3c2)c2cc(-c3ccnn3Cc3ccc(C#N)cc3)cnc21 [Example 325]
20 | 100 to 1000 nM | N#Cc1ccc(Cn2ncc(Cl)c2-c2cc(F)c3nnn(-c4ccc5[nH]c(=O)[nH]c5c4)c3c2)cc1 [Example 326]
21 | 100 to 1000 nM | Cn1nc(-c2ccc3[nH]c(=O)[nH]c3c2)c2cc(-c3ccnn3Cc3ccc(C#N)cc3)ncc21 [Example 327]
22 | 100 to 1000 nM | N#Cc1ccc(Cn2cccc2-c2cc(F)c3nnn(-c4ccc5[nH]c(=O)[nH]c5c4)c3c2)cc1 [Example 328]
23 | 100 to 1000 nM | N#Cc1ccc(Cn2nccc2-c2cnc3c(F)nn(-c4ccc5[nH]c(=O)[nH]c5c4)c3c2)cc1 [Example 329]
24 | 100 to 1000 nM | N#Cc1ccc(Cn2ncc(F)c2-c2cc(F)c3nnn(-c4ccc5[nH]c(=O)[nH]c5c4)c3c2)cc1 [Example 331]
25 | 100 to 1000 nM | Cc1cnn(Cc2ccc(C#N)cc2)c1-c1cc(F)c2nnn(-c3ccc4[nH]c(=O)[nH]c4c3)c2c1 [Example 334]
26 | > 1000 nM | N#Cc1ccc(Cn2nccc2-c2ccc3cnc(-c4ccc5[nH]c(=O)[nH]c5c4)n3c2)c(F)c1 [Example 335]
27 | 100 to 1000 nM | N#Cc1ccc(Cn2nccc2-c2cnc3c(CO)nn(-c4ccc5[nH]c(=O)[nH]c5c4)c3c2)cc1 [Example 336]
28 | 100 to 1000 nM | N#Cc1ccc(Cn2nccc2-c2cnc3c(N)nn(-c4cc(F)c5[nH]c(=O)[nH]c5c4)c3c2)c(F)c1 [Example 337]
29 | 100 to 1000 nM | N#Cc1ccc(Cn2nccc2-c2cc3c(cnn3-c3ccc4cn[nH]c4c3)c(=O)[nH]2)c(F)c1 [Example 338]
30 | < 100 nM | N#Cc1ccc(Cn2nccc2-c2cnc3c(N)nn(-c4cc5[nH]c(=O)[nH]c5cc4F)c3c2)c(F)c1 [Example 339]
31 | 100 to 1000 nM | Cn1nc(-c2ccc3cn[nH]c3c2)c2cc(-c3ccnn3Cc3ccc(C#N)cc3)cnc21 [Example 341]
32 | 100 to 1000 nM | N#Cc1ccc(Cn2nccc2-c2cc3c(nnn3-c3ccc4[nH]c(=O)[nH]c4c3)c(=O)[nH]2)cc1 [Example 359]
33 | > 1000 nM | N#Cc1ccc(Cn2nccc2-c2cc3c(c(N)nn3-c3ccc4[nH]c(=O)[nH]c4c3)[n+]([O-])c2)cc1 [Example 365]

The remaining lines, values behind:

Row | SMILES | IC50
34 | Cc1nn(-c2ccc3cn[nH]c3c2)c2cc(-c3ccnn3Cc3ccc(C#N)cc3)cnc12 [Example 317] | 100 to 1000 nM
35 | N#Cc1ccc(Cn2nc(C(=O)O)cc2-c2cc(F)c3nnn(-c4ccc5[nH]c(=O)[nH]c5c4)c3c2)cc1 [Example 322] | > 1000 nM
36 | N#Cc1ccc(Cn2ncc(C#N)c2-c2cc(F)c3nnn(-c4ccc5[nH]c(=O)[nH]c5c4)c3c2)cc1 [Example 330] | > 1000 nM
37 | Cn1c(=O)n(-c2ccc3cn[nH]c3c2)c2cc(-c3ccnn3Cc3ccc(C#N)cc3)cnc21 [Example 332] | > 1000 nM
38 | N#Cc1ccc(Cn2c(-c3cc(F)c4nnn(-c5ccc6[nH]c(=O)[nH]c6c5)c4c3)c[nH]c2=O)cc1 [Example 333] | 100 to 1000 nM
39 | N#Cc1ccc(Cn2nccc2-c2cnc3c(c2)c(-c2ccc4cn[nH]c4c2)nn3CCc2ccccc2)cc1 [Example 342] | > 1000 nM
40 | N#Cc1ccc(Cn2nccc2-c2cc(F)c3nnn(-c4ccc5[nH][nH]c(=O)c5c4)c3c2)cc1 [Example 343] | 100 to 1000 nM
41 | N#Cc1ccc(Cn2nccc2-c2cc(F)c3nnn(-c4ccc5c(CO)n[nH]c5c4)c3c2)cc1 [Example 344] | 100 to 1000 nM
42 | N#Cc1ccc(Cn2nccc2-c2cc(F)c3nnn(-c4ccc5c(N)n[nH]c5c4)c3c2)cc1 [Example 345] | 100 to 1000 nM
43 | N#Cc1ccc(Cn2nccc2-c2cc3c(cn2)nnn3-c2ccc3c(=O)[nH][nH]c3c2)cc1 [Example 346] | 100 to 1000 nM
44 | N#Cc1ccc(Cn2nccc2-c2cc(F)c3nnn(-c4ccc5c(CNS(N)(=O)=O)n[nH]c5c4)c3c2)cc1 [Example 347] | > 1000 nM
45 | N#Cc1ccc(Cn2nccc2-c2cc(F)c3nnn(-c4ccc5c(CC(=O)O)n[nH]c5c4)c3c2)cc1 [Example 348] | > 1000 nM
46 | N#Cc1ccc(Cn2nccc2-c2cc(F)c3nnn(-c4ccc5c(CCO)n[nH]c5c4)c3c2)cc1 [Example 349] | > 1000 nM
47 | N#Cc1ccc(Cn2nccc2-c2cc(F)c3nnn(-c4ccc5c(=O)[nH][nH]c5c4)c3c2)cc1 [Example 350] | 100 to 1000 nM
48 | N#Cc1ccc(Cn2nccc2-c2cc(F)c3nnn(-c4ccc5c(CNC(=O)CN)n[nH]c5c4)c3c2)cc1 [Example 351] | > 1000 nM
49 | N#Cc1ccc(Cn2nccc2-c2cc3c(nnn3-c3ccc4cn[nH]c4c3)c(=O)[nH]2)cc1 [Example 352] | < 100 nM

Row | SMILES | IC50
50 | COCc1n[nH]c2cc(-n3nnc4c(F)cc(-c5ccnn5Cc5ccc(C#N)cc5)cc43)ccc12 [Example 353] | > 1000 nM
51 | N#Cc1ccc(Cn2nccc2-c2cc(F)c3nnn(-c4ccc(O)cc4)c3c2)cc1 [Example 354] | > 1000 nM
52 | N#Cc1ccc(Cn2nccc2-c2cc(F)c3nnn(-c4ccc5c(COCCO)n[nH]c5c4)c3c2)cc1 [Example 355] | > 1000 nM
53 | Cn1c(-c2ccnn2Cc2ccc(C#N)cc2)cc2c(nnn2-c2ccc3cn[nH]c3c2)c1=O [Example 356] | 100 to 1000 nM
54 | COc1nc(-c2ccnn2Cc2ccc(C#N)cc2)cc2c1nnn2-c1ccc2cn[nH]c2c1 [Example 357] | 100 to 1000 nM
55 | Cc1nn(-c2ccc3cn[nH]c3c2)c2cc(-c3ccnn3Cc3ccc(C#N)cc3)[nH]c(=O)c12 [Example 358] | 100 to 1000 nM
56 | Cc1nn(-c2ccc3cn[nH]c3c2)c2cc(-c3ccnn3Cc3ccc(C#N)cc3)c[n+]([O-])c12 [Example 360] | 100 to 1000 nM
57 | Cn1nc(-c2ccc3cn[nH]c3c2)c2cc(-c3ccnn3Cc3ccc(C#N)cc3)c[n+]([O-])c21 [Example 361] | > 1000 nM
58 | N#Cc1ccc(Cn2nccc2-c2cc3c(c(N)nn3-c3ccc4cn[nH]c4c3)[n+]([O-])c2)cc1 [Example 362] | 100 to 1000 nM
59 | N#Cc1ccc(Cn2nccc2-c2cc3c(c[n+]2[O-])nnn3-c2ccc3cn[nH]c3c2)cc1 [Example 363] | 100 to 1000 nM
60 | N#Cc1ccc(Cn2nccc2-c2cnc3c(N)nn(-c4cc5[nH]ncc5cc4F)c3c2)cc1 [Example 364] | < 100 nM
61 | [O-][n+]1cc(Cl)ccc1Cn1nccc1-c1cc(Cl)c2nnn(-c3ccc4cn[nH]c4c3)c2c1 [Example 366] | < 100 nM
62 | N#Cc1ccc(Cn2nccc2-c2cc(F)c3nnn(-c4ccc5cn[nH]c5n4)c3c2)cc1 [Example 367] | < 100 nM
63 | O=c1[nH]c2ccc(-n3nnc4c(Cl)cc(-c5ccnn5Cc5ccc(Cl)c[n+]5[O-])cc43)cc2[nH]1 [Example 369] | 100 to 1000 nM
64 | CCc1nn(-c2ccc3cn[nH]c3c2)c2cc(-c3ccnn3Cc3ccc(C#N)cc3)cnc12 [Example 370] | > 1000 nM
65 | N#Cc1ccc(Cn2nccc2-c2cnc3c(Cl)nn(-c4ccc5cn[nH]c5c4)c3c2)cc1 [Example 371] | 100 to 1000 nM
